One experiment concerns the target Sphingosine 1-phosphate receptor 1 (Homo sapiens, UniProt P21453). Description: S1P1 receptor agonists, dose response, cell-based, agonist mode, 60K MLSMR set (AID 468).
Conditions: not given
Chain of Sphingosine 1-phosphate receptor 1 (P21453 whole entry): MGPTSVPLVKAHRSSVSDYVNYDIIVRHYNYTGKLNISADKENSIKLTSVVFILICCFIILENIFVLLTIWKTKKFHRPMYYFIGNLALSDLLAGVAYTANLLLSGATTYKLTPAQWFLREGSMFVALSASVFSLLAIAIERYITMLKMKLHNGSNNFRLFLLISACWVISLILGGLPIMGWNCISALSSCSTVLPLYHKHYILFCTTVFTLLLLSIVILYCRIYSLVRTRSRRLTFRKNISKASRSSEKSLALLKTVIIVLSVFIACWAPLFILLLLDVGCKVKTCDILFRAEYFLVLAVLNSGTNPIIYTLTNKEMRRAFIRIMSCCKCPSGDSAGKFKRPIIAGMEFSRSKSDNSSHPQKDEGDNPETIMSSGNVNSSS
A word on the EC50: it is the concentration that produces a half-maximal response. A low value points to a more potent agent. In the case of `O=C(Nc1ccc(S(=O)(=O)NCc2ccco2)cc1)c1ccc2ccccc2n1` [MLS000098663], the response was half-maximal at 8.51 µM (EC50).

Consider `CCC(=O)Nc1ccc2c(c1)C(=O)N(C1CCCCC1)C2=O` [MLS000099936], for which the EC50 was above 30 µM. For `O=C(c1ccc(Cl)s1)N1CCN(c2nc3ccccc3s2)CC1` [MLS000100900], the EC50 was above 30 µM. Still for that read-out and setting: with `Cc1nc2ccc3nc(NC(=O)C4COc5ccccc5O4)sc3c2s1` (stereo not given) [MLS000100909] the figure was 4.9 µM; with `CCc1nnc(NC(=O)C2CCCCC2)s1` [MLS000104554], above 95 µM; with `CC(=O)Oc1ccc(-n2c(O)c3c(c2O)C2(C)C=CC3(C)O2)cc1` [MLS000107813], 11.8 µM. Still for that read-out and setting: the result for `COc1ccc(NC(=O)c2cnn3c(C(F)(F)F)cc(-c4ccco4)nc23)cc1OC` [MLS000109325] reads above 95 µM; that for `Cc1cc2nc(-c3ccc(NC(=O)C(C)C)cc3)oc2cc1C` [MLS000109473], 3.04 µM. The compound `COc1ccc(CN=O)cc1COc1ccc(NC(C)=O)cc1` [MLS000111933] displayed an EC50 above 95 µM. Consider `COC(=O)Cc1sc(=O)[nH]c1Nc1ccccc1` [MLS000111966], for which the EC50 is above 95 µM.

As to `Cc1cc(C=Nn2cnnc2)c(C)n1-c1ccc(OCc2ccc(F)cc2)cc1` [MLS000112167], the EC50 is 0.552 µM.

Take `Cc1cc(C=Nn2cnnc2)c(C)n1-c1ccc(OCc2ccccc2F)cc1` [MLS000112180]: the EC50 came to 1.08 µM.

In turn, `CC(C)(C)SCCNS(=O)(=O)c1ccccc1` [MLS000112230] yielded an EC50 above 95 µM. `COc1ccc(-c2nc(-c3ccc(NC(=O)c4ccncc4)cc3)no2)cc1OC` [MLS000115086] came in with a concentration for a half-maximal effect (EC50) of 0.946 µM.

Compound `O=C(Nc1c(F)cc(F)cc1Br)c1cc(-c2ccc(O)cc2)on1` [MLS000116264] registered an EC50 of 2.37 µM.

As to `CCCc1cc(C(=O)Nc2sc(C)c(CC)c2C#N)no1` [MLS000116385], the EC50 amounted to 3.73 µM.

The compound `CCCc1cc(C(=O)Nc2sc3c(c2C#N)CCC3)no1` [MLS000116386] yielded an EC50 above 95 µM. Same read-out and setting: with `CC(C)Cc1cc(C(=O)Nc2sc3c(c2C#N)CCCC3)no1` [MLS000116410] the figure was above 10 µM; with `Cc1nn(Cc2ccc(Cl)c(Cl)c2)c(C)c1NC(=O)c1cc(CC(C)C)on1` [MLS000116412], 9.16 µM; with `Cc1noc(C)c1S(=O)(=O)N(CC(=O)Nc1ccc2c(c1)OCO2)c1ccc(C(C)C)cc1` [MLS000117405], above 95 µM. In the case of `Cc1nc2ccccc2c2oc(C(=O)NCC3COc4ccccc4O3)cc12` (stereo not given) [MLS000118430], a half-maximal effect (EC50) was put at 8.06 µM. Same read-out and setting: with `COc1ccc(CNC(=O)c2cc3c(C)nc4ccccc4c3o2)c(OC)c1` [MLS000118441] the figure was 4.2 µM; with `Cc1csc(NC(=O)C(Cc2ccccc2)n2cccc2)n1` (stereo not given) [MLS000119019], 2.77 µM; with `O=C(Nc1ncc(Br)s1)C(Cc1ccccc1)n1cccc1` (stereo not given) [MLS000119027], 2.23 µM.

With `CCSc1nnc(NC(=O)C(Cc2ccccc2)n2cccc2)s1` (stereo not given) [MLS000119034], the EC50 was above 30 µM.

Take `Cc1ccc(-c2csc(N3CCC(NS(=O)(=O)c4ccc5c(c4)OCCO5)CC3)n2)cc1` [N-[1-[4-(4-methylphenyl)-1,3-thiazol-2-yl]piperidin-4-yl]-2,3-dihydro-1,4-benzodioxine-6-sulfonamide]: the EC50 came to 1.65 µM. The compound `CCC(C)c1ccc2oc(-c3ccc(NC(=O)c4nnc[nH]4)cc3)nc2c1` (stereo not given) [N-[4-(5-sec-butyl-1,3-benzoxazol-2-yl)phenyl]-1H-1,2,4-triazole-3-carboxamide] came in with an EC50 above 10 µM. `c1ccc(CNc2ncnc3ccccc23)cc1` [N-benzylquinazolin-4-amine]: the midpoint of the response, the EC50, lay at 4.81 µM. Compound `Clc1ccc(CCNc2[nH]cnc3ncnc2-3)cc1` [SMR000017624] had an EC50 of 9.86 µM. For `CC1Cc2ccccc2N1c1ncnc2nc[nH]c12` (stereo not given) [SMR000017649], the concentration for a half-maximal effect (EC50) worked out at 3.78 µM. On to `O=S1(=O)C=C(Sc2nc3cc(Cl)ccc3o2)c2ccccc21` [SMR000019512], for which the EC50 was above 30 µM.

With `CCCc1ccc(Oc2c[nH]nc2-c2ccc(O)c(C)c2O)cc1` [SMR000024172], a half-maximal response (EC50) required 12.9 µM. The compound `Cc1oc(-c2ccccc2)nc1Cn1cccc1C1=NC(c2ccccc2)CO1` (stereo not given) [SMR000026251] had an EC50 of 0.922 µM. Still for that read-out and setting: with `c1ccc2c(c1)CCN(c1ncnc3c1[nH]c1ccccc13)C2` [SMR000039631] the figure was 1.19 µM; with `CCC(NC(C)c1ccccc1)=C1C(=O)N(C)C(=O)N(C)C1=O` (stereo not given) [SMR000043429], 13.6 µM.

Consider `Cc1ccccc1CS(=O)(=O)c1nnc([C@H](CC(C)C)NC(=O)OC(C)(C)C)o1` [SMR000044673], for which the EC50 came out at 7.51 µM. Compared with the last compound, the EC50 is about 1.8-fold lower. In turn, `Cc1ccc2c(c1)[nH]c1c(N3CCN(Cc4ccccc4)CC3)ncnc12` [SMR000044826] had an EC50 of 3.27 µM. Same read-out and setting: with `COC(=O)CS(=O)(=O)c1nnc([C@H](Cc2ccccc2)NC(=O)OC(C)(C)C)o1` [SMR000046685] the figure was 6.99 µM; with `CC(C)(C)OC(=O)N[C@@H](Cc1ccccc1)c1nnc(S(=O)(=O)Cc2ccccc2)o1` [SMR000047857], 4.1 µM; with `CCc1cc(-c2n[nH]cc2-c2ccc3c(c2)OCO3)c(O)cc1O` [SMR000060132], 6 µM. Same read-out and setting: with `Cc1cc(C(=O)CSc2nnc(-c3cccnc3)n2-c2ccccc2F)c(C)n1C` [SMR000064090] the figure was 0.817 µM. In turn, `Clc1ccc(-n2nnnc2Sc2ncnc3sccc23)cc1` [SMR000066808] registered an EC50 of 6.39 µM. Take `Cc1ccccc1OCCCCc1c(C)n[nH]c1C` [SMR000103095]: the EC50 worked out at 6.74 µM. The compound `COc1ccccc1OCCCCCc1c(C)n[nH]c1C` [SMR000103101] showed an EC50 of 9.84 µM. In the case of `Cc1cccc(OCCCCc2c(C)n[nH]c2C)c1C` [SMR000103133], it took 4.96 µM to reach a half-maximal effect (EC50). Same read-out and setting: with `CCn1c(-c2cccc(Cl)c2)n[nH]c1=S` [SMR000104244] the figure was above 95 µM. Compound `CC1(C)CC(=O)C(=CNc2ccc3[nH]ncc3c2)C(=O)C1` [SMR000111453] had an EC50 of 5.07 µM. This lies in the single-digit micromolar range. Compound `CN=C(NC#N)SCC(=O)c1ccc(Cl)cc1Cl` [[2-(2,4-dichlorophenyl)-2-oxidanylidene-ethyl] N-cyano-N'-methyl-carbamimidothioate] returned an EC50 of 4.55 µM. `CC(C)(C)OC(=O)N[C@@H](Cc1ccccc1)c1nnc(S(=O)(=O)Cc2cccc(F)c2)o1` [tert-butyl N-[(1S)-1-[5-[(3-fluorophenyl)methylsulfonyl]-1,3,4-oxadiazol-2-yl]-2-phenylethyl]carbamate] showed an EC50 of 8.51 µM.

Still in this experiment, the particulars now being: inactive by the depositor's call.
`Cc1cccc(-n2ncc3c(N(C)C4CCCCC4)ncnc32)c1` [MLS000100814] yielded an EC50 of 95 µM. `CCCOc1ccc(S(=O)(=O)NCc2ccc(OC)cc2)cc1` [MLS000104592] gave an EC50 of 23.1 µM. Still for that read-out and setting: with `CC(=O)Nc1ccc(S(=O)(=O)N2CCN(c3cccc(C)c3C)CC2)cc1` [MLS000115810] the figure was 15.4 µM; with `CSc1ccc(S(=O)(=O)Nc2ccc3c(c2)OCCO3)cc1` [MLS000115922], 13.6 µM.

On to `CC(C)Cc1cc(C(=O)Nc2cc(Br)ccc2O)no1` [MLS000116399], for which the EC50 was 20.2 µM.

On to `CCCOC(=O)c1[nH]c2c(c1C)C(=O)CC(c1cc(OC)c(OC)c(OC)c1)C2` (stereo not given) [MLS000116504], for which a half-maximal response (EC50) required 10.9 µM. Same read-out and setting: with `CCC(C)OC(=O)c1[nH]c2c(c1C)C(=O)CC(c1ccc(N(C)C)cc1)C2` (stereo not given) [MLS000116530] the figure was 18.7 µM; with `O=C(C1CCN(S(=O)(=O)c2cccc3cccnc23)CC1)N1CCN(c2ccc(Cl)cc2)CC1` [MLS000116819], 17.3 µM. The compound `Cc1noc(C)c1S(=O)(=O)N(CC(=O)Nc1ccc2c(c1)OCCO2)c1ccc(C(C)C)cc1` [MLS000117406] came in with an EC50 of 14.2 µM. The compound `Cc1ccc(Cl)cc1N1CCN(C(=O)C2CCN(c3nnc(-n4cccc4)s3)CC2)CC1` [MLS000119702] came in with an EC50 of 34.4 µM. The compound `COc1ccc(S(=O)(=O)Cc2ccc(C(=O)N3CCN(c4cccc(C)c4C)CC3)o2)cc1` [MLS000120226] displayed an EC50 of 14 µM. Compared with the last compound, the EC50 is about 2.5-fold lower. In the case of `COc1ccc(S(=O)(=O)Cc2ccc(C(=O)N3CCN(c4ccc(Cl)cc4)CC3)o2)cc1` [MLS000120227], a half-maximal response (EC50) required 13.7 µM.

With `Cc1cccc(N2CCN(C(=O)C3CCCN(S(=O)(=O)c4cccc5cccnc45)C3)CC2)c1C` (stereo not given) [MLS000120299], the EC50 worked out at 16.3 µM. In turn, `COc1ccc2c(c1)-c1nc(NC(=O)c3cccs3)sc1CC2` [N-(8-methoxy-4,5-dihydrobenzo[e][1,3]benzothiazol-2-yl)-2-thiophenecarboxamide] gave an EC50 of 17.3 µM. In the case of `C=CCOC(=O)c1[nH]c2c(c1C)C(=O)CC(c1cc(OC)c(OC)c(OC)c1)C2` (stereo not given) [SMR000093465], a half-maximal response (EC50) required 10.7 µM. Regarding `Cc1cccc(OCCCCc2c(C)n[nH]c2C)c1` [SMR000103102], a half-maximal response (EC50) required 11.5 µM. This EC50 and that of the compound before are within 1.5-fold of each other.

These data come from BindingDB's records for doi:10.7270/Q2251GJ9 (The Scripps Research Institute Molecular Screening Center, 2007).
